Residues, ends and D or L forms follow the SMILES beside them.
Target: T1, Endothelin-1 receptor (Sus scrofa, UniProt Q29010)
T1 sequence (Q29010 whole entry): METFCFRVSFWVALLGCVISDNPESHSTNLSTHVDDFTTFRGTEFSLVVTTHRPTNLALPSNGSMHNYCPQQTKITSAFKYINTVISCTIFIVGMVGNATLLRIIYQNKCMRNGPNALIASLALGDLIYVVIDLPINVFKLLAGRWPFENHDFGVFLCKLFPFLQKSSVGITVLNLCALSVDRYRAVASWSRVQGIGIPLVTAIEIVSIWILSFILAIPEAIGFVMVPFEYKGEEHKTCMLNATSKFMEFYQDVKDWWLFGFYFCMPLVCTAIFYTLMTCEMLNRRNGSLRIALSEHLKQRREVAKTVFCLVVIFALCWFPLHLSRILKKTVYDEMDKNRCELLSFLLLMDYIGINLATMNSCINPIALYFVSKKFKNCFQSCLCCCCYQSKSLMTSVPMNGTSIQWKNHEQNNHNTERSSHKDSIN
Assay: Binding activity against Endothelin A receptor of Porcine aortic smooth muscle membranes

Row | IC50 max [nM] | Compound
1 | 3000 | CC(C)C[C@@H]1NC(=O)[C@@H](C(C)C)NC(=O)[C@H](C)NC(=O)[C@@H](CCC(=O)O)NC(=O)[C@@H](Cc2c[nH]c3ccccc23)NC1=O (HELM PEPTIDE1{A.[dV].L.[dW].[dE]}$PEPTIDE1,PEPTIDE1,1:R1-5:R2$$$V2.0)
2 | 22 | CC(C)C[C@@H]1NC(=O)[C@@H](C(C)C)NC(=O)[C@@H]2CCCN2C(=O)[C@@H](CC(=O)O)NC(=O)[C@@H](Cc2c[nH]c3ccccc23)NC1=O (HELM PEPTIDE1{L.[dW].[dD].P.[dV]}$PEPTIDE1,PEPTIDE1,1:R1-5:R2$$$V2.0)
3 | 410 | CC(C)C[C@@H]1NC(=O)[C@@H](C(C)C)NC(=O)[C@@H]2CCCN2C(=O)[C@@H](CCC(=O)O)NC(=O)[C@@H](Cc2c[nH]c3ccccc23)NC1=O (HELM PEPTIDE1{L.[dW].[dE].P.[dV]}$PEPTIDE1,PEPTIDE1,1:R1-5:R2$$$V2.0)
4 | 35 | CC(C)C[C@H]1C(=O)N[C@H](Cc2c[nH]c3ccccc23)C(=O)N[C@H](CC(=O)O)C(=O)N2CCC[C@H]2C(=O)N[C@H](C(C)C)C(=O)N1C (HELM PEPTIDE1{[meL].[dW].[dD].P.[dV]}$PEPTIDE1,PEPTIDE1,1:R1-5:R2$$$V2.0)

Further lines, the molecule ahead of its results:

Row | Compound | IC50 max [nM]
5 | CC[C@H](C)[C@H]1NC(=O)[C@H](C)NC(=O)[C@@H](CCC(=O)O)NC(=O)[C@@H](Cc2c[nH]c3ccccc23)NC(=O)[C@H](CC(C)C)NC1=O (HELM PEPTIDE1{A.[CC[C@H](C)[C@@H](N[*:1])C(=O)[*:2]].L.[dW].[dE]}$PEPTIDE1,PEPTIDE1,1:R1-5:R2$$$V2.0) | 1400
6 | CC(C)C[C@@H]1NC(=O)[C@@H](C(C)C)NC(=O)[C@H](C)NC(=O)[C@@H](CC(=O)O)NC(=O)[C@@H](Cc2c[nH]c3ccccc23)NC1=O (HELM PEPTIDE1{A.[dV].L.[dW].[dD]}$PEPTIDE1,PEPTIDE1,1:R1-5:R2$$$V2.0) | 110
7 | CC(C)[C@H]1NC(=O)[C@H](C)NC(=O)[C@@H](CC(=O)O)NC(=O)[C@@H](Cc2c[nH]c3ccccc23)NC(=O)[C@@H]2CCCN2C1=O (HELM PEPTIDE1{A.[dV].P.[dW].[dD]}$PEPTIDE1,PEPTIDE1,1:R1-5:R2$$$V2.0) | 8500
8 | CC(C)C[C@@H]1NC(=O)[C@@H](C(C)C)NC(=O)CN(C)C(=O)[C@@H](CC(=O)O)NC(=O)[C@@H](Cc2c[nH]c3ccccc23)NC1=O (HELM PEPTIDE1{L.[dW].[dD].[Sar].[dV]}$PEPTIDE1,PEPTIDE1,1:R1-5:R2$$$V2.0) | 32
9 | CC(C)C[C@@H]1NC(=O)[C@@H](C(C)C)NC(=O)[C@H](C)N(C)C(=O)[C@@H](CC(=O)O)NC(=O)[C@@H](Cc2c[nH]c3ccccc23)NC1=O (HELM PEPTIDE1{L.[dW].[dD].[meA].[dV]}$PEPTIDE1,PEPTIDE1,1:R1-5:R2$$$V2.0) | 34
